Values joined by “and” are separate entries in the source; they are usually repeats but may differ in a detail not shown here. Identical values can stand only once.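 Assay format: 96-well plates, 48-hour exposure. The concentration for 50% growth inhibition is given as GI50. At the TGI there is no net growth.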
Legend:
Assay in all cases: inhibition of tumour cell growth, NCI panel, 48 h
[1] = tested on: OVCAR-4 ovarian
[2] = tested on: NCI/ADR-RES ovarian
[3] = tested on: HT29 colon
[4] = tested on: RXF 393 renal
[5] = tested on: UO-31 renal
[6] = tested on: LOX IMVI melanoma
[7] = tested on: UACC-257 melanoma
[8] = tested on: HCC-2998 colon
[9] = tested on: MALME-3M melanoma
[10] = tested on: MOLT-4 leukemia

Compound	GI50 [1]	TGI [1]	GI50 [2]	TGI [2]	GI50 [3]	TGI [3]	GI50 [4]	TGI [4]	GI50 [5]	TGI [5]	GI50 [6]	TGI [6]	GI50 [7]	TGI [7]	GI50 [8]	TGI [8]	GI50 [9]	TGI [9]	GI50 [10]	TGI [10]
CCOC(=O)c1cn2ncnc(Oc3ccc(NC(=O)NCCN(CC)CC)c(Cl)c3)c2c1C	12.2 µM	45.5 µM	4.26 µM	64.5 µM	2.26 µM	5.45 µM	1.63 µM	3.37 µM	1.55 µM	3.19 µM	1.85 µM	3.55 µM	1.89 µM	4.05 µM	2.01 µM	4.68 µM	1.7 µM	3.3 µM	2.36 µM	5.67 µM
C[C@@H]1CCC2[C@@H](C)[C@H](OC(=O)CCC(=O)NCCNC(=O)Cc3cc(=O)oc4cc(N(C)C)ccc34)O[C@@H]3O[C@]4(C)CC[C@@H]1C23OO4 (stereo not given in full)	11.4 µM	> 100 µM	1.19 µM	22.9 µM	1.05 µM	19.6 µM	3.45 µM	43.2 µM	0.897 µM	4.15 µM	0.566 µM	2.31 µM	4.04 µM	> 100 µM	6.85 µM	> 100 µM	2.02 µM	> 100 µM	1.75 µM	37.9 µM
c1ccc([P+](CCC[P+](c2ccccc2)(c2ccccc2)c2ccccc2)(c2ccccc2)c2ccccc2)cc1	5.51 µM	> 100 µM	> 100 µM	> 100 µM	9.89 µM	> 100 µM		> 100 µM		> 100 µM		> 100 µM	2.77 µM	> 100 µM and 41.1 µM		> 100 µM		> 100 µM	35.9 µM	> 100 µM
Cc1cc(S(=O)(=O)Nc2nc3ccsc3c(=O)n2Cc2ccccc2)c(S)cc1Cl	44 µM	> 100 µM	67.8 µM	> 100 µM	43.7 µM	> 100 µM	44 µM	> 100 µM	86 µM	> 100 µM	31.1 µM	65.3 µM	47.8 µM	> 100 µM	24 µM	43.7 µM	21.2 µM	50.1 µM	37.9 µM	> 100 µM
CCN1CCN(c2nc(C)cc(N(CCCNc3ccnc4cc(Cl)ccc34)Cc3ccco3)n2)CC1	3.99 µM	20.7 µM	4.42 µM	19.7 µM	2.35 µM	8.72 µM	1.98 µM	4.23 µM	1.83 µM	4.3 µM	1.76 µM	3.75 µM	1.95 µM	3.79 µM	2.05 µM	5.89 µM	1.89 µM	3.67 µM	3.14 µM	16.8 µM
CC1(C)CC(O)CCCCCCOc2c(CN)cccc2NC(=O)c2nc(cnc2N)-c2ccc(cc2)S1(=O)=O (stereo not given)	1.3 µM	3.43 µM	2.83 µM	13.4 µM	0.309 µM	3.75 µM	< 0.01 µM	1.54 µM	0.648 µM	2.25 µM	1.26 µM	2.88 µM	1.52 µM	3.4 µM	2.01 µM	4.24 µM	1.31 µM	2.81 µM	< 0.0122 µM	2.01 µM
COc1ccc(-c2cc3nccn3c(Nc3ncccc3C(N)=O)n2)cc1OC	> 100 µM	> 100 µM	> 26.6 µM	> 100 µM	1.19 µM	> 100 µM	0.613 µM	18.4 µM	0.758 µM	42.1 µM	0.807 µM	> 100 µM	> 100 µM	> 100 µM	> 100 µM	> 100 µM	> 100 µM	> 100 µM	4.14 µM	> 100 µM
c1cc(C2N3CCCN2CC3)ccn1 (stereo not given)		> 100 µM		> 100 µM		> 100 µM		> 100 µM		> 100 µM		> 100 µM		> 100 µM		> 100 µM		80.1 µM		> 100 µM
COc1ccc(Cn2cc3c(c2-c2ccccc2)CCc2cncnc2-3)cc1	10.2 µM	33.7 µM	3.99 µM	19.8 µM	3.9 µM	12.9 µM	3.56 µM	9.82 µM	10.3 µM	24.2 µM	6.81 µM	19.9 µM	4.03 µM	16.7 µM	11.9 µM	25.5 µM	3.18 µM	12.8 µM	2.81 µM	11.1 µM
CCCCCCCCCCC(CN(CC)CC)C(O)c1ccccc1 (stereo not given)	1.63 µM	3.45 µM	1.9 µM	3.7 µM	1.76 µM	3.81 µM	1.5 µM	3.05 µM	1.56 µM	3.1 µM	1.75 µM	3.19 µM	2.64 µM	5.78 µM	1.81 µM	3.39 µM	1.95 µM	3.85 µM	2.25 µM	5.8 µM

Reference: PubChem BioAssay (NCI)
